Measured values published in patent US4835160A, “Derivatives of pyridoindole, having anti-tumor properties” (Sanofi, priority 1986, dated 1989).
Where two headings read alike, the source gives them in different places.

Tests used:
[1] = system: leukemia P 388; test: Test for leukemia P 388 IP/D1 IV; assay type: in vivo, CDF1 hybrid mice; details: for Number of survivors: day D30; for T/C %: survival time
Method: (§1) The antitumour activity was tested in vivo on various tumours inoculated in various ways according to the following general protocol:
(§2) All the male or female mice are inoculated on day D0 with a known quantity of viable tumour cells for ascitic tumours or with a known tumour fragment for solid tumours.
(§3) They are then distributed into various groups. Each group, corresponding to the animals treated by the product under test, is made up of 10 mice. The product under test is dissolved in distilled water and it is administered n times (Dx-Dy), n, y, and x varying according to the protocol chosen, at the rate of 0.1 ml of solution per 10 g by weight of mice treated and at specific doses for each protocol.
(§4) The "negative control" group, corresponding to the animals which are not treated by the product, contains 2√N animals, N being equal to or greater than the total number of mice treated by the product in the same experiment.
(§5) Finally, the tests can also be carried out at the same time as the study of a group called "positive control", of ten animals, which is treated by a molecule, known for its antitumour activity and which can vary according to the protocol chosen, in the same conditions as the groups treated by the product under test.
(§6) The antitumour activity is evaluated, in the case of ascitic tumours, by considering the increase in the survival time of the animals treated in comparison to that of the animals in the "negative control" group, according to the formula: [formula]
(§7) Also, a product is considered as toxic at the dose studied when this T/C value is equal to or less than 85%. In addition, a product is also considered as toxic at the dose studied when the weight variation, expressed in grams and calculated by the formula: […]
(§8) The tests are carried out with CDF1 hybrid mice inoculated by intraperitoneal route with 10^6 leukemia cells from the P 388 line. The compound under test is administered for 5 successive days (D1-D5) by intraperitoneal route. The positive control for the test is 5-fluorouracile which is administered in the same conditions. The number of surviving animals is evaluated on day D30.
(f) Test for leukemia P 388 IP/D1 IV (GERAN et al., Cancer Chemother., 1972, 2, 07-57).
The test is carried out according to the same protocol as that described for test (a), the compound under test being administered by intravenous route only on day D1.

[2] = system: colic adenocarcinoma 38; test: Test for colic adenocarcinoma 38, SC/D2,9 IV; assay type: in vivo, BDF1 hybrid mice; set-up: Average tumour volume at D32: unit not given beside the values; details: D2 and D9; for Number of survivors: day D32; for T/C % at D32: tumour volume
Method: as §1, §2, §3, §4
(§9) the antitumour activity is evaluated, in the case of solid tumours, by considering the reduction in the average tumour volume of the treated animals in comparison with the animals of the "negative control" group, according to the formula: [formula]
(§10) A value for T/C of less than 42% indicates an activity for the product at the studied dose.
(§11) The tests are carried out with BDF1 hybrid mice inoculated by subcutaneous route with a standardized tumour fragment of 3 mm^3. The compound under test is administered by intravenous route only on day D1.
(i) Test for colic adenocarcinoma 38, SC/D2,9 IV (GERAN et al., Cancer Chemother., 1972, 2, 07-57).
This test is carried out according to the protocol described for test (h), the compound under test being administered by intravenous route on day D2 then on day D9.
The number of surviving animals is evaluated on day D32.

[3] = system: colic adenocarcinoma 38; test: Test for colic adenocarcinoma 38, SC/D1 IV; assay type: in vivo, BDF1 hybrid mice; details: 50 mg/kg IV
Method: as §1, §2, §3, §4, §9, §10
(h) Test for colic adenocarcinoma 38, SC/D1 IV. (GERAN et al., Cancer Chemother., 1972, 2, 07-57).
as §11
The number of surviving animals is evaluated on day D38.

[4] = system: leukemia P 388; test: Test of leukemia P 388; IP/IP, D1-5; assay type: in vivo, CDF1 hybrid mice; details: D1-D5; for Number of survivors: day D30; for T/C %: survival time
Method: (2) In vivo: (GERAN et al., Cancer Chemother., 1972, 2, 07-57):
as §1, §2, §3, §4, §5, §6
The criterion for activity varies according to the protocol.
as §7
"Average weight of the group measured on day 5--Average weight of the same group measured on day 1"
is equal to or less than 4 g.
(a) Test of lelukemia P 388; IP/IP, D1-5 (GERAN et al., Cancer Chemother., 1972, 2, 07-57).
as §8

[5] = system: leukemia tumour line L 1210; test: In vitro cytotoxic activity on leukemia tumour line L 1210; assay type: cell-based; details: L 1210, 48 hours contact, 37° C., read-out: I D 50 (concentration which inhibits the proliferation of the cells by 50%)
Method: (1) In vitro: ([…] et al., Chem. Biol. Interaction, 1979, 25, 45-58). The cytotoxic activity of the compounds of the invention has been evaluated by in vitro tests. These tests consist of adding increasing concentrations of the compound under test to a cellular culture of the leukemia tumour line L 1210 in an exponential phase of growth. The cellules are incubated at 37° C. in a CO2 incubator and counted every 24 hours. The calculation of the I D 50 (concentration of the product, expressed in 1^-1 micromole, which inhibits the proliferation of the cells by 50%) is made after 48 hours contact.

[6] = in vivo; set-up: species or system CDF1 hybrid mice; details: mouse, ip, 50 mg/kg
Excerpt: The compounds of the invention benefit from a good tolerance and a weak toxicity.
Thus the administration, to healthy CDF1 hybrid mice, in a single injection by intraperitoneal route, of the compounds under test, has enabled it to be established that the product is perfectly tolerated at a high dosage since the survival rate of the animals of the experiment was 100 out of 100 thirteen days after administration.

[7] = system: leukemia L 1210; test: Test for leukemia L 1210 IP/D1 IV; assay type: in vivo, CDF1 hybrid mice; details: for Number of survivors: day D60; for T/C %: survival time
Method: as §1, §2, §3, §4, §5, §6, §7
as §8, with “10^5” for “10^6”, “L 1210” for “P 388”, “5” for “5 successive”, “5-fluorouracile” for “5-fluorouracile which is”, “D60.” for “D30.”
(g) Test for leukemia L 1210 IP/D1 IV. (GERAN et al., Cancer Chemother., 1972, 2, 07-57).
The test is carried out according to the same protocol as that described for test (c), the compound under test being administered by intravenous route only on day D1.

[8] = in vivo; set-up: species or system female CDF1 hybrid mice; details: mouse, iv
Method: In addition the administration, to healthy female CDF1 hybrid mice, in a single injection by intravenous route with a perfusor, lasting 4 minutes, of the compounds under test in solution in physiological serum at a rate of 0.1 ml of solution per 10 g weight of the animals has enabled it to be established that the compounds are also well tolerated at a high dosage in these conditions.

[9] = system: melanoma B 16; test: Test for melanoma B 16; assay type: in vivo, BDF1 hybrid mice; details: D1-D9; for Number of survivors: day D60; for T/C %: survival time
Method: as §1, §2, §3, §4, §5, §6, §7
(d) Test for melanoma B 16 (GERAN et al., Cancer Chemother., 1972, 2, 07-75).
The tests are carried out with BDF1 hybrid mice inoculated by intraperitoneal route with 0.5 ml of a homogenate of melanoma B 16 made up from 1 g of tumour in 10 ml of physiological serum. The compound under test is administered for 9 days (D1-D9) by intraperitoneal route. The positive control for the test is Cis-Platine administered in the same conditions. The number of surviving animals is evaluated on day D60.

With Cc1cnc(NCCCN(C)C)c2c3cc(O)ccc3n(C)c12 [Derivative No. 15, 4,5-dimethyl 1(3-dimethylaminopropylamino)-8-hydroxy-5H-pyrido[4,3-b]indole] the “Median day of survival” value ([1]; 50 mg/kg IV) was 17.75 days, the “Variation by weight (g)” value ([1]; 50 mg/kg IV) was “+0.5 g” and the Number of survivors ([1]; 50 mg/kg IV) was 1/10. The T/C % ([1]; 50 mg/kg IV) was 163%, the “Median day of survival” value ([1]; 100 mg/kg IV) was 25.75 days and the “Variation by weight” value ([1]; 100 mg/kg IV) was -0.25 g. The Number of survivors ([1]; 100 mg/kg IV) was 4/10, the T/C % ([1]; 100 mg/kg IV) was 236% and the “Average tumour volume at D32” value ([2]; 25 mg/kg IV) was 0.0. The Number of survivors ([2]; 25 mg/kg IV) was 10/10, the “T/C % at D32” value ([2]; 25 mg/kg IV) was 0% and the “Average tumour volume at D32” value ([2]; 50 mg/kg IV) was 0.0. For the same molecule, the Number of survivors ([2]; 50 mg/kg IV) was 10/10, the “T/C % at D32” value ([2]; 50 mg/kg IV) was 0% and the “Average tumour volume at D38” value [3] was 2.73. For the same molecule, the Number of survivors ([3]; day D38) was 10/10, the “T/C % at D38” value ([3]; tumour volume) was 30% and the “Median day of survival” value ([4]; 1.25 mg/kg IP) was 18.0 days. For the same molecule, the “Variation by weight” value ([4]; 1.25 mg/kg IP) was -1.9 g, the Number of survivors ([4]; 1.25 mg/kg IP) was 0/10 and the T/C % ([4]; 1.25 mg/kg IP) was 164%. The “Median day of survival” value ([4]; 2.5 mg/kg IP) was 20.25 days, the “Variation by weight” value ([4]; 2.5 mg/kg IP) was -1.9 g and the Number of survivors ([4]; 2.5 mg/kg IP) was 0/10. For the same molecule, the T/C % ([4]; 2.5 mg/kg IP) was 184%, the “Median day of survival” value ([4]; 5 mg/kg IP) was 26 days and the “Variation by weight” value ([4]; 5 mg/kg IP) was -2.5 g. For the same molecule, the Number of survivors ([4]; 5 mg/kg IP) was 1/10, the T/C % ([4]; 5 mg/kg IP) was 236% and the “Median day of survival” value ([4]; 10 mg/kg IP) was 9.3 days. The “Variation by weight” value ([4]; 10 mg/kg IP) was -4.1 g, the Number of survivors ([4]; 10 mg/kg IP) was 0/10 and the T/C % ([4]; 10 mg/kg IP) was 85%. The IC50 [5] was 0.01 µM.

In the case of CCN(CC)CCCNc1ncc(C)c2c1c1cc(O)ccc1n2C [Derivative No. 11, 1-(3-diethylaminopropylamino)-4,5-dimethyl-8-hydroxy-5H-pyrido[4,3-b]indole], the survival at 312 h [6] is reported as 100%, the “Median day of survival” value ([7]; 20 mg/kg IV) is reported as 11.8 days and the “Variation by weight” value ([7]; 20 mg/kg IV) is reported as -0.4 g. The Number of survivors ([7]; 20 mg/kg IV) was 0/10, the T/C % ([7]; 20 mg/kg IV) was 132% and the “Median day of survival” value ([7]; 40 mg/kg IV) was 13.3 days. For the same molecule, the “Variation by weight” value ([7]; 40 mg/kg IV) was -0.2 g, the Number of survivors ([7]; 40 mg/kg IV) was 0/10 and the T/C % ([7]; 40 mg/kg IV) was 149%. For the same molecule, the survival at 192 h ([8]; 40 mg/kg) was 100%, the survival at 192 h ([8]; 50 mg/kg) was 100% and the “Median day of survival” value ([9]; 1.25 mg/kg IP) was 32.25 days. For the same molecule, the “Variation by weight” value ([9]; 1.25 mg/kg IP) was -2.5 g, the Number of survivors ([9]; 1.25 mg/kg IP) was 0/10 and the T/C % ([9]; 1.25 mg/kg IP) was 133%. The “Median day of survival” value ([9]; 2.5 mg/kg IP) was 35.25 days, the “Variation by weight (g)” value ([9]; 2.5 mg/kg IP) was “+0.6 g” and the Number of survivors ([9]; 2.5 mg/kg IP) was 0/10. For the same molecule, the T/C % ([9]; 2.5 mg/kg IP) was 145%, the “Median day of survival” value ([9]; 5 mg/kg IP) was 41.25 days and the “Variation by weight (g)” value ([9]; 5 mg/kg IP) was “+0.2 g”. The Number of survivors ([9]; 5 mg/kg IP) was 3/10, the T/C % ([9]; 5 mg/kg IP) was 170% and the “Median day of survival” value ([9]; 10 mg/kg IP) was 19.3 days. The “Variation by weight” value ([9]; 10 mg/kg IP) was -1.0 g, the Number of survivors ([9]; 10 mg/kg IP) was 0/10 and the T/C % ([9]; 10 mg/kg IP) was 79%. The “Median day of survival” value ([4]; 2.5 mg/kg IP) was 17.25 days, the “Variation by weight (g)” value ([4]; 2.5 mg/kg IP) was “+1.2 g” and the Number of survivors ([4]; 2.5 mg/kg IP) was 0/10. The T/C % ([4]; 2.5 mg/kg IP) was 149%, the “Median day of survival” value ([4]; 5 mg/kg IP) was 19.25 days and the “Variation by weight (g)” value ([4]; 5 mg/kg IP) was “+0.7 g”. The Number of survivors ([4]; 5 mg/kg IP) was 0/10, the T/C % ([4]; 5 mg/kg IP) was 166% and the “Median day of survival” value ([4]; 10 mg/kg IP) was 23.75 days. The “Variation by weight (g)” value ([4]; 10 mg/kg IP) was “+0.2 g”, the Number of survivors ([4]; 10 mg/kg IP) was 2/10 and the T/C % ([4]; 10 mg/kg IP) was 205%. For the same molecule, the “Median day of survival” value ([4]; 20 mg/kg IP) was 7.4 days, the “Variation by weight” value ([4]; 20 mg/kg IP) was -2.8 g and the Number of survivors ([4]; 20 mg/kg IP) was 0/10. It also gave a T/C % ([4]; 20 mg/kg IP) of 64% and an IC50 ([5]; Mus musculus, L1210, 48 h) of 0.03 µM.
